Activity calls are given as the source filed them.
Tests used:
[1] = biological target: Glucose-6-phosphate 1-dehydrogenase (Homo sapiens, UniProt P11413); assay: inhibition of Homo sapiens G6PD, dose series – biochemical, fluorescence, selectivity assay for P. falciparum G6PD inhibitor project, dose response (AID 504792); assay type: functional
Leucine aminopeptidase = biological target: T1, Leucine aminopeptidase (Plasmodium falciparum 3D7, UniProt Q8IL11); assay: P. falciparum M17LAP inhibitors, primary screen, biochemical, fluorogenic H-Leu-NHMec substrate, 1536-well (AID 1619); assay type: functional
T1 sequence (Q8IL11 whole entry): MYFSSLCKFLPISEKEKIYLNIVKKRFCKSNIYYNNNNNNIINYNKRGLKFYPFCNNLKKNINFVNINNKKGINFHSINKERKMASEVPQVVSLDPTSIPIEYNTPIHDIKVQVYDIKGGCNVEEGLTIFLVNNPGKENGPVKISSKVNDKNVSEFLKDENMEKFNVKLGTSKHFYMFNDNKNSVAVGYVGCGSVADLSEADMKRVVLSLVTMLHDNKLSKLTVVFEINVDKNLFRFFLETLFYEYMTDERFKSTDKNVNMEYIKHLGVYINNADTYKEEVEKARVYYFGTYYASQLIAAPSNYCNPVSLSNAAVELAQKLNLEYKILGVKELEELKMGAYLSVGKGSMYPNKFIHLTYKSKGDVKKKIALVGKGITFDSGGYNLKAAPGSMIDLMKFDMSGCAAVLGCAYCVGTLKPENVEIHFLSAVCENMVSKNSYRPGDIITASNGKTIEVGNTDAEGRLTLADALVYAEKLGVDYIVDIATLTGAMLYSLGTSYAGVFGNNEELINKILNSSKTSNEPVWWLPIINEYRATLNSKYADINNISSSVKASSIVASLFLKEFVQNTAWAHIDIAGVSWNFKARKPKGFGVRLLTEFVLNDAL

[2] = biological target: G-protein coupled receptor 55 (Homo sapiens, UniProt Q9Y2T6); assay: inhibition of LPI-stimulated GPR55 beta-arrestin translocation – imaging, U2OS, beta-arrestin-GFP, LPI agonist, primary screen (AID 2013); assay type: functional;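 further: antagonist potency measured as reduced agonist-driven arrestin aggregation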
[3] = biological target: T2, Small ubiquitin-related modifier 1 (Homo sapiens, UniProt P63165); assay: SUMO1 protein interaction blockers, potency – biochemical, fluorescence polarization, uHTS hits, dose response (AID 624382); assay type: functional; details: read-out: IC50_Mean
[4] = biological target: T2, Small ubiquitin-related modifier 1; assay: SUMO1 protein-protein binding blockers, potency – biochemical, FRET, dose response (AID 624383); assay type: functional; details: read-out: IC50_Mean
BJ [5] = assay: BJ-TERT fibroblast viability loss – cell-based, RAS-independent, luminescence, dose response (AID 1933); assay type: functional; details: Homo sapiens
[6] = A Cell Based Secondary Assay To Explore Cytotoxicity of Compounds that Sensitize Mycobacterium Tuberculosis to Beta-Lactam Antibiotics.; assay type: functional
BJ [7] = assay: cells; assay type: functional, cell-based; details: Homo sapiens
BJ [8] = assay: BJ-TERT-LT-ST fibroblast viability loss – cell-based, RAS-independent, luminescence, dose response (AID 1935); assay type: functional; details: Homo sapiens;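 further: BJ fibroblasts immortalized with TERT plus LT and ST oncogenes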
[9] = DRD fibroblast viability loss – cell-based, non-viral oncogenic, luminescence, dose response (AID 1934); assay type: functional; details: Homo sapiens
[10] = biological target: T3, Heat shock factor protein 1 (Mus musculus, UniProt P38532); assay: enhancement of HSF1-driven luciferase signal – cell-based, NIH3T3, luminescence, dose retest, confirmation (AID 435004); assay type: functional;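 further: stress induced by proteasome inhibitor MG132 added 30 min after compound; luciferase reporter driven by HSF1 response element in NIH3T3 cells; actives raise luminescence as potentiators of the MG132 stress response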
T3 sequence (P38532 whole entry): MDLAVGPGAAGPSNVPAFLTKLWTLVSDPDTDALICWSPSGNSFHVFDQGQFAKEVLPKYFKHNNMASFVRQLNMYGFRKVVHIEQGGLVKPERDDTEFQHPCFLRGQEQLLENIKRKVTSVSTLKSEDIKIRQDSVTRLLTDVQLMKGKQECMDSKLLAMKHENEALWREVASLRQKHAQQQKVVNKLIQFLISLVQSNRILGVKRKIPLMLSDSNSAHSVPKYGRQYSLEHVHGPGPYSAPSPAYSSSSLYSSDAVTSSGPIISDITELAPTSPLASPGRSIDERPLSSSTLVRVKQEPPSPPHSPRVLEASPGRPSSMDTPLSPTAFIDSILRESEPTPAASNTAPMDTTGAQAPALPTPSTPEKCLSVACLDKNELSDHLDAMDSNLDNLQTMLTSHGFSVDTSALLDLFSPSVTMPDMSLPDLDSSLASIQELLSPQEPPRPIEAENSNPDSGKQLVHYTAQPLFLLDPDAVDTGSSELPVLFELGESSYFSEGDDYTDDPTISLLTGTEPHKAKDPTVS

HEK293 = assay: EBV LMP1 TES2 canonical NF-kB signalling blockers – cell-based, HEK293, luciferase, cherry-pick, dose response (AID 588343); assay type: functional; details: Homo sapiens
INS1 = assay: INS-1E survival protection against cytokine death – cell-based, luminescence, retest, dose response (AID 449756); assay type: functional; details: Rattus norvegicus;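 further: cell death triggered by IL-1 beta plus TNF-alpha plus IFN-gamma mixture; protective hits raise ATP signal compared with cytokine alone wells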
[11] = biological target: Glyceraldehyde-3-phosphate dehydrogenase (Homo sapiens, UniProt P04406)
Large T antigen = Large T antigen (Simian virus 40, UniProt P03070); assay type: functional, Betapolyomavirus macacae;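 further: Confirmatory-stage PubChem screen for compounds that inhibit SV40 T antigen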
[12] = biological target: T4, Carboxy-terminal domain RNA polymerase II polypeptide A small phosphatase 1 (Homo sapiens, UniProt Q9GZU7); assay: CTDSP1 inhibitors, concentration-response, biochemical, absorbance readout, ultra-high-throughput screen actives (AID 540297); assay type: functional
T4 sequence (Q9GZU7 whole entry): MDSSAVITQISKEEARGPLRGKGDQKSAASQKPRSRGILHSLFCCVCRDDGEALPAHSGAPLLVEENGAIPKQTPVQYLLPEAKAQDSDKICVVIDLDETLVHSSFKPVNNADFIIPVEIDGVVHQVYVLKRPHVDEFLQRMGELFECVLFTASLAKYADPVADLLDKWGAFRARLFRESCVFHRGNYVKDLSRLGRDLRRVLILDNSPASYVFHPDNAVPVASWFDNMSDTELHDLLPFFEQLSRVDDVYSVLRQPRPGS

Protein Wnt-3a = Protein Wnt-3a (Mus musculus, UniProt P27467); assay: antagonism of Wnt3a pathway luciferase reporter – Wnt-LIGHT cells, luminescence, selectivity assay for Gli-SUFU antagonist project, dose response (AID 651570); assay type: functional; details: read-out: IC50_Mean;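 further: Wnt-LIGHT reporter cells stimulated with conditioned medium from Wnt3a-producing cells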
[13] = HEK-293T viability loss after treatment – luminescence, T-cell screen hits, cytotoxicity control for TCR NF-kB inhibitor project, dose response (AID 489026); assay type: functional, cell-based;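 further: cells exposed to compound about 14 hours before the viability readout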
[14] = A549 cell cytotoxicity, dose response, cytotoxicity control, plate reader, cherry-pick, antagonist series (AID 743412); assay type: functional, cell-based
[15] = blockers of bursicon-stimulated LGR2 cAMP reporter – cell-based, HEK293, CRE-luciferase reporter, cherry pick, set 2, dose response (AID 743343); assay type: functional;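 further: transfected cells were stimulated with diluted bursicon conditioned medium after compound addition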
[16] = blockade of melanocortin 4 receptor signaling – cell-based, plate reader, cherry pick, counter-screen for LGR2 antagonist project, dose response (AID 743444); assay type: functional;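 further: transfected HEK 293 cells stimulated with alpha-MSH peptide; potency of inhibitors of the alpha-MSH evoked signal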
[17] = viability loss in HEK293 cells – cell-based, plate reader, cherry-picked samples, cytotoxicity control, dose response (AID 743446); assay type: functional
[18] = biological target: T5, Rac GTPase-activating protein 1 (Homo sapiens, UniProt Q9H0H5); assay: blockers of MgcRacGAP-driven Rac1 GTP hydrolysis – biochemical, ADP Hunter fluorescence, primary and confirmatory, confirmation (AID 624330); assay type: functional
T5 sequence (Q9H0H5 whole entry): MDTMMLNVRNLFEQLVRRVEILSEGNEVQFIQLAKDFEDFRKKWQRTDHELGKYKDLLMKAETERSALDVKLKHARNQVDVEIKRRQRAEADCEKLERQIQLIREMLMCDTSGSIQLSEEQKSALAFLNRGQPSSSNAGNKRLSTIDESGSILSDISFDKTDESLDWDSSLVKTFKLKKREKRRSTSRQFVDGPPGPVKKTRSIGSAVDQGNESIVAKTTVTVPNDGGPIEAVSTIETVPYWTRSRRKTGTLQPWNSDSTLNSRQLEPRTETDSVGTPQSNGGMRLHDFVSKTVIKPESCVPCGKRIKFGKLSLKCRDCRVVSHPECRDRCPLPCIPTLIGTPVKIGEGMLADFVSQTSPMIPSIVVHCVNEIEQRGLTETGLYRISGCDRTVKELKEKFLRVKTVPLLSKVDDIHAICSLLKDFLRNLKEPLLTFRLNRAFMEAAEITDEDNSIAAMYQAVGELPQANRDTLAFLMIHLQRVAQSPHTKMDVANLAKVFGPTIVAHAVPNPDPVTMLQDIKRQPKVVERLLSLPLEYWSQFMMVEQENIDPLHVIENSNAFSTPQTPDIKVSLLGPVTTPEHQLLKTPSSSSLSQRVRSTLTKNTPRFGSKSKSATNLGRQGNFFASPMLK

[19] = Trypanosoma cruzi growth suppression in host cells – NIH3T3 host cells, beta-gal luminescence, confirmation (AID 2044); assay type: functional, cell-based;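 further: intracellular parasites grown in NIH/3T3 mouse fibroblasts as host cells; luminescent beta-galactosidase reporter signal from transgenic T. cruzi replicating inside host cells; inhibitors lower the luminescence signal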
[20] = NIH3T3 cell viability loss – ATP luminescence, mouse fibroblasts, counter-screen, dose response (AID 2010); assay type: functional, cell-based;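 further: cells exposed to compound for about 90 hours before reading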
[21] = Vero E6 cell cytotoxicity, dose response, cytotoxicity control for non-replicating M. tuberculosis project, secondary assay (AID 492998); assay type: functional, VeroE6; details: Vero C1008
cells = assay type: functional
P388/ADR = assay: cells; assay type: functional; details: Mus musculus
SN12K1 = assay: cells; assay type: functional; details: Homo sapiens
P388 = assay: cells; assay type: functional; details: Mus musculus
[22] = biological target: Heat shock protein HSP 90-alpha (Homo sapiens, UniProt P07900); assay type: functional, organism-based
Vero = assay: cells; assay type: functional; details: Chlorocebus sabaeus
[23] = reduction of Shn3 3'UTR-driven luciferase in osteoblasts – cell-based, Clone20 osteoblasts, firefly luciferase, cherry-picked, dose response (AID 624132); assay type: functional;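 further: firefly luciferase luminescence from reporter carrying the Shn3 3'UTR in osteoblasts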
[24] = loss of viability in HepG2 cells – cell-based, CellTiter-Glo, cherry-picked, cytotoxicity control for Shn3 inhibitor project, dose response (AID 624134); assay type: functional
[25] = non-specific 3'UTR reporter inhibition in Clone20-Shn3RL – cell-based, Renilla luciferase, cherry-picked, counter-screen for Shn3 inhibitor project, dose response (AID 624133); assay type: functional

Glucose-6-phosphate 1-dehydrogenase, sequence (P11413 whole entry): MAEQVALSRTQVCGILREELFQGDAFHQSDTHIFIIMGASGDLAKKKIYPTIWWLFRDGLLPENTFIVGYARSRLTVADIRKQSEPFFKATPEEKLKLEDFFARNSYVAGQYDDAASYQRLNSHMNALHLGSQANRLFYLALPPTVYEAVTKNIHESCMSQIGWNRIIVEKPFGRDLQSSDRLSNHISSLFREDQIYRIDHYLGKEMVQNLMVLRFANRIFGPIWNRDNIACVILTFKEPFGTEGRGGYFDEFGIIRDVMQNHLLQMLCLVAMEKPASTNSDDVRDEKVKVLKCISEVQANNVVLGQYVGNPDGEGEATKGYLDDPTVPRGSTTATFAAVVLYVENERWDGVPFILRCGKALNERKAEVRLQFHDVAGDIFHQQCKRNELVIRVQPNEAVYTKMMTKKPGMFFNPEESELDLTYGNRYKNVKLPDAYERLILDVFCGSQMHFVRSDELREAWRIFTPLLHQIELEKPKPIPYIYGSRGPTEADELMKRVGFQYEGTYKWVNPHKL
G-protein coupled receptor 55, sequence (Q9Y2T6 whole entry): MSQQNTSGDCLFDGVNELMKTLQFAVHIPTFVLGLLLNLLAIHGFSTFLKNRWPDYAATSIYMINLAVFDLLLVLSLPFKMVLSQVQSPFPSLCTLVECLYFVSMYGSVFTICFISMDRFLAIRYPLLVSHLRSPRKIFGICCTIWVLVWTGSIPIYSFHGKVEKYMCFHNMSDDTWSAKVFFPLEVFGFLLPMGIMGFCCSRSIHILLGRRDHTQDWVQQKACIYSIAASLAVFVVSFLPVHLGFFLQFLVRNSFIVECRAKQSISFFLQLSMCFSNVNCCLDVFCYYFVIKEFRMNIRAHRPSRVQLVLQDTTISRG
T2 sequence (P63165 whole entry): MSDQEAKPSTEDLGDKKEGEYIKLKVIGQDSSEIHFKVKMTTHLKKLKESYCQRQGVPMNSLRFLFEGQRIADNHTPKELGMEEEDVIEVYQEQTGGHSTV
Glyceraldehyde-3-phosphate dehydrogenase, sequence (P04406 whole entry): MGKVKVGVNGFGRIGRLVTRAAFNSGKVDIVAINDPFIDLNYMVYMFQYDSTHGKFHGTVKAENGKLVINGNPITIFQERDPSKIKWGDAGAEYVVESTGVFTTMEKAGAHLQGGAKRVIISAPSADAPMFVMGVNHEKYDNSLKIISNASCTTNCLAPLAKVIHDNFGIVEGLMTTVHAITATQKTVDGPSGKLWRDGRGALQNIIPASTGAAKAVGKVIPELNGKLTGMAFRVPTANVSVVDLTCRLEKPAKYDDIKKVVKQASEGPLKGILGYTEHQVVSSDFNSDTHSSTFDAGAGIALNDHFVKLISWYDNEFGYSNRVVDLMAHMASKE
Protein Wnt-3a, sequence (P27467 whole entry): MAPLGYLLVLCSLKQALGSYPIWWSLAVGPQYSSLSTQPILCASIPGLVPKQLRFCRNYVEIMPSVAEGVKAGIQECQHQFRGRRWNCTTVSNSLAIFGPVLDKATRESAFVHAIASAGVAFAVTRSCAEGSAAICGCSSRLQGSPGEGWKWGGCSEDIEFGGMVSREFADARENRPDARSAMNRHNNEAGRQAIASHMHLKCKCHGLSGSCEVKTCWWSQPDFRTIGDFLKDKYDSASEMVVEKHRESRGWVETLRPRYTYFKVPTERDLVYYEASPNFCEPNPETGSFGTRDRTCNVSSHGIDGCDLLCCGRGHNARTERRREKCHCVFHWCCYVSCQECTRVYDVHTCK
Large T antigen, sequence (P03070 whole entry, the tested form may be a part): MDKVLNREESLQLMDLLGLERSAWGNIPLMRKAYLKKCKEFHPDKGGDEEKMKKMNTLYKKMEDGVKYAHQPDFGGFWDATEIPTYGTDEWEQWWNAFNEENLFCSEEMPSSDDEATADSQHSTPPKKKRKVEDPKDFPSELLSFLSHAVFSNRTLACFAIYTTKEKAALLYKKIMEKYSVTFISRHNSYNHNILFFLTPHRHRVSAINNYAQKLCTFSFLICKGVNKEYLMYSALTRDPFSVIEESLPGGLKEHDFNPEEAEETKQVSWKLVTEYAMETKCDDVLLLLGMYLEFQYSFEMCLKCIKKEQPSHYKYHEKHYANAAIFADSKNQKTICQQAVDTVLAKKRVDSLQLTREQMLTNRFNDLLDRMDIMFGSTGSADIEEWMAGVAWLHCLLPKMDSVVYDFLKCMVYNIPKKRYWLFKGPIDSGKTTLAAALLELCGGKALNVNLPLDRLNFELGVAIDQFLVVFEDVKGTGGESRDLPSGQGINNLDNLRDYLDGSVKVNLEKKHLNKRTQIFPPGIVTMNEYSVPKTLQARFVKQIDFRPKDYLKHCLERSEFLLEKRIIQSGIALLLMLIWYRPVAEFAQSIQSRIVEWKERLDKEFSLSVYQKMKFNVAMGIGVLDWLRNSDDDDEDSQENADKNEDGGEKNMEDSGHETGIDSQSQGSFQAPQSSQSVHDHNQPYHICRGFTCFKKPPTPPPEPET

COc1cc(NCc2ccccc2)c2ncn(C(C)C)c2c1
IC50 [1]: > 80 µM (inactive)

CCCCc1ccc(NC(=O)N[C@H](C(=O)O)C(C)C)cc1
IC50 (Leucine aminopeptidase): 7.04 µM (active)

O=C(CSc1nc(-c2ccccc2)c(-c2ccccc2)[nH]1)N1CCN(S(=O)(=O)c2ccccc2)CC1
IC50 [2]: 3.67 µM (active)

CCC(C)[C@@H](CN)NCC1(c2ccccc2)CC1 (some centres undefined)
IC50 [3]: > 66.6 µM (inactive)
IC50 [4]: 18.4 µM (active)

N#Cc1c(C(F)(F)F)cc(-c2ccccc2)nc1SCC(=O)Nc1sc2c(c1C#N)CCC2
EC50 (BJ [5]): > 150 µM (not active)
CC50 [6]: > 40 µM (active)
EC50 (BJ [7]): > 150 µM (inconclusive)
EC50 (BJ [8]): > 150 µM (not active)
EC50 [9]: > 150 µM (inconclusive)

COc1ccc(C2c3ccc(O)cc3Oc3ncn(Cc4ccco4)c(=N)c32)cc1 (centres undefined)
IC50 [2]: 1.41 µM (active)
EC50 [10]: > 260 µM (inactive)

O=C(Nc1ccc(Cl)cc1)Nc1nnc(CSCc2ccc(Cl)cc2)s1
AC50 (HEK293): 3.92 µM (active)
AC50 (INS1): 3.99 µM (active)

N#C/C(=C\c1c[nH]nc1-c1ccccc1Br)C(=O)O
IC50 [2]: 3.58 µM (active)

O=C1C(Cl)=C(N2CCN(C/C=C/c3ccccc3)CC2)C(=O)N1c1ccnc(Cl)c1
IC50 [11]: > 50 µM (inconclusive)

O=C(c1ccc(-c2ccc(Cl)cc2)o1)N1CCN(S(=O)(=O)c2cccs2)CC1
CC50 [6]: 26 µM (active)

C[N+]1(CCCCSc2ccc(O)cc2)CCCCC1
IC50 (Large T antigen): 12.1 µM (active)
IC50 [12]: 6.89 µM (active)

Cc1nc2ccccc2n1CC(=O)NC(C)C1CC2CCC1C2 (centres undefined)
IC50 (Protein Wnt-3a): 4.3 µM (active)

NS(=O)(=O)c1ccc(Sc2nc3ccccc3s2)c([N+](=O)[O-])c1
CC50 [6]: 13 µM (active)
IC50 [13]: > 80 µM (inactive)

CCOc1ccc(-c2ccc(SCC)nn2)cc1
AC50 [14]: > 52 µM (inactive)
AC50 [15]: 7.12 µM (active)
AC50 [16]: 8.8 µM (active)
AC50 [17]: > 52 µM (inactive)

COc1ccc(Cl)cc1NC(=O)NNC(=O)c1ccccn1
CC50 [6]: 28.8 µM (active)

O=C(Sc1nnc(O)nc1O)c1ccccc1
IC50 [1]: > 80 µM (inactive)
IC50 [18]: 224 µM (active)

C/C(Cn1nnc([N+](=O)[O-])n1)=N\NC(=O)c1ccccc1O
IC50 [1]: > 80 µM (inactive)

O=C(N/N=C/c1ccc([N+](=O)[O-])s1)c1ccncc1
EC50 [19]: 0.838 µM (active)
EC50 [20]: > 60 µM (not active)
CC50 [21]: 15.6 µM (active)
IC50 (cells): 1 µM (active)

O=c1oc2c(ccc3occc32)c(N2CCCCC2)c1-c1ccccc1
GI50 (P388/ADR): 48.6 µM (inactive)
GI50 (SN12K1): > 100 µM (inactive)
GI50 (P388): 34.7 µM (inactive)

CCOC(=O)/C=C/c1c[nH]c(=O)[nH]c1=O
GI50 (P388/ADR): > 66.4 µM (inactive)
GI50 (SN12K1): > 75 µM (inactive)
GI50 (P388): > 75 µM (inactive)

CC(=O)C(=Cc1cn(C)c(=O)n(C)c1=O)C(C)=O
GI50 (P388/ADR): 96.6 µM (inactive)
GI50 (SN12K1): 100 µM (inactive)
GI50 (P388): 80.7 µM (inactive)

CCCCCCc1cn([C@H]2C[C@H](O)[C@@H](CO)O2)c(=O)[nH]c1=O
GI50 (P388/ADR): > 100 µM (inactive)
GI50 (SN12K1): > 100 µM (inactive)
GI50 (P388): > 100 µM (inactive)

CC1=NNC(=O)C1CCC(=O)N/N=C/c1ccco1 (centres undefined)
IC50 (Leucine aminopeptidase): 69.2 µM (active)
IC50 [12]: > 80 µM (inactive)

CCCCC(=O)NC(c1cccc([N+](=O)[O-])c1)c1ccc2cccnc2c1O (centres undefined)
AC50 (HEK293): 5.92 µM (active)
AC50 [22]: 2.69 µM (active)
CC50 (Vero): 1.23 µM (active)
AC50 [23]: 1 µM (active)
AC50 [24]: 2.41 µM (active)
AC50 [25]: 2.08 µM (active)

— ChEMBL document CHEMBL1201862, “PubChem BioAssay data set” (2004)
